Laboratory results reported in US20250074892A1, “CARBONYL BRIDGED HETEROCYCLIC COMPOUND, AND COMPOSITION AND APPLICATION THEREOF” (BEIJING SCITECH-MQ PHARMACEUTICALS LIMITED, priority 2022, published 2025).

Columns and labels:
HT29 cells = assay: Inhibition of cell necrosis (CCK8 method), HT29 cells; type: cell-based, human; details: HT29, Human TNF-α/AT-406/Z-VAD-FMK, 16 hours, CCK8
Procedure: (§1) In this assay example 2, under the condition of inducing programmed cell necrosis of HT29 and L929 cell lines, different concentrations of the test compounds were added to test the IC50 of the rescue effect of the test compounds on the programmed necrosis.
(§2) • Compounds: dissolved in DMSO to make a 10 mM solution; • TNF-α: initial concentration of 100 µg/mL; • Z-VAD-FMK: dissolved in DMSO to make a 10 mM solution; • AT-406: dissolved in DMSO to make a 10 mM solution. • Cell lines: HT29 cells were cultured in McCoy's 5A medium containing 10% fetal bovine serum, 100 U/mL penicillin, and 100 µg/mL streptomycin, and L929 cells were cultured in MEM medium containing 10% horse serum, 100 U/mL penicillin, and 100 µg/mL streptomycin.
(§3) 1. The test compound was dissolved in DMSO to form a stock solution, and a gradient dilution was performed; the solution was then diluted with the corresponding culture medium to obtain a solution with 10 times the working concentration.
(§4) 2. The cells in the logarithmic growth phase were diluted with culture medium to a specific cell concentration. 80 µL of the cell suspension was added to a 96-well plate, so that the cell densities of HT29 and L929 were 1.2*10^4 cells/well and 2.0*10^4 cells/well, respectively. The plate was cultured in a 37° C., 5% carbon dioxide incubator overnight.
(§5) 3. […] of the compound solution was added to each well of the 96-well plate inoculated with cells. The compounds to be tested were serially diluted 4-fold to obtain 9 concentrations in duplicate, starting from a maximum concentration of 10 μM. At the same time, a control group without compound addition was set up.
(§6) 4. After the cells were cultured for another 30 minutes, 10 μL of the inducer mixture was added to each well. The final concentrations of Human TNF-α, AT-406 and Z-VAD-FMK in HT29 cells were 20 ng/mL, […] and 20 μM, respectively; and the final concentrations of Murine TNF-α and Z-VAD-FMK in L929 cells were 20 ng/mL and 25 μM, respectively.
(§7) 5. The 96-well plate in which compounds and inducer were added was placed in a 37° C., 5% carbon dioxide incubator for further culture, wherein HT29 cells were cultured for 16 hours and L929 cells were cultured for 4-8 hours. Cell viability was detected by CCK8. GraphPad Prism software was used to prepare a dose-effect curve and IC50 was calculated.

L929 cells = assay: Inhibition of cell necrosis (CCK8 method), L929 cells; type: cell-based, mouse; details: 4-8 hours, CCK8
Procedure: as §1, §2, §3, §4, §5, §6, §7

[1] = Mus musculus, L929, L929, Murine TNF-α/Z-VAD-FMK

Cc1ccc(OCCCO)cc1-c1ccnc(N2CCC(C(=O)N3N=CCC3c3ccccc3F)CC2)c1 (stereo not shown) [Example 20, (5-(2-fluorophenyl)-4,5-dihydro-1H-pyrazol-1-yl)(1-(4-(5-(3-hydroxypropoxy)-2-methylphenyl)pyridin-2-yl)piperidin-4-yl)methanone]
IC50 (HT29 cells): 10 to 50 nM | IC50 (L929 cells; L929, Murine TNF-α/Z-VAD-FMK): 10 to 50 nM

O=C(C1CCN(c2cc(-c3cc(OCCO)ccc3F)ccn2)CC1)N1N=CCC1c1cc(F)cc(F)c1 (stereo not shown) [Example 22, (5-(3,5-difluorophenyl)-4,5-dihydro-1H-pyrazol-1-yl)(1-(4-(2-fluoro-5-(2-hydroxyethoxy)phenyl)pyridin-2-yl)piperidin-4-yl)methanone]
IC50 (HT29 cells; Homo sapiens, HT-29, 16 h): ≤ 10 nM | IC50 (L929 cells; [1]): 50 to 100 nM

O=C(C1CCN(c2cc(-c3cc(OCCCCCO)ccc3F)ccn2)CC1)N1N=CCC1c1cc(F)cc(F)c1 (stereo not shown) [Example 25, (5-(3,5-difluorophenyl)-4,5-dihydro-1H-pyrazol-1-yl)(1-(4-(2-fluoro-5-((5-hydroxypentyl)oxy)phenyl)pyridin-2-yl)piperidin-4-yl)methanone]
IC50 (HT29 cells; Homo sapiens, HT-29, 16 h): ≤ 10 nM | IC50 (L929 cells; [1]): 10 to 50 nM

CC(C)(O)CCCCOc1ccc(F)c(-c2ccnc(N3CCC(C(=O)N4N=CCC4c4cc(F)cc(F)c4)CC3)c2)c1 (stereo not shown) [Example 26, (5-(3,5-difluorophenyl)-4,5-dihydro-1H-pyrazol-1-yl)(1-(4-(2-fluoro-5-((5-hydroxy-5-methylhexyl)oxy)phenyl)pyridin-2-yl)piperidin-4-yl)methanone]
IC50 (HT29 cells; Homo sapiens, HT-29, 16 h): ≤ 10 nM | IC50 (L929 cells; [1]): 10 to 50 nM

O=C(C1CCN(c2cc(-c3cc(OCCCF)ccc3F)ccn2)CC1)N1N=CCC1c1cc(F)cc(F)c1 (stereo not shown) [Example 27, (5-(3,5-difluorophenyl)-4,5-dihydro-1H-pyrazol-1-yl)(1-(4-(2-fluoro-5-(3-fluoropropoxy)phenyl)pyridin-2-yl)piperidin-4-yl)methanone]
IC50 (HT29 cells; Homo sapiens, HT-29, 16 h): ≤ 10 nM | IC50 (L929 cells; [1]): 50 to 100 nM

COCCOc1ccc(C)c(-c2ccnc(N3CCC(C(=O)N4N=CCC4c4ccccc4)CC3)c2)c1 (stereo not shown) [Example 28, (1-(4-(5-(2-methoxyethoxy)-2-methylphenyl)pyridin-2-yl)piperidin-4-yl)(5-phenyl-4,5-dihydro-1H-pyrazol-1-yl)methanone]
IC50 (HT29 cells; Homo sapiens, HT-29, 16 h): ≤ 10 nM | IC50 (L929 cells; [1]): 50 to 100 nM

Cc1ccc(OCCCO)cc1-c1ccnc(N2CCC(C(=O)N3N=CCC3c3ccccc3F)CC2)c1 (stereo not shown) [Example 29, (5-(2-fluorophenyl)-4,5-dihydro-1H-pyrazol-1-yl)(1-(4-(5-(3-hydroxypropoxy)-2-methylphenyl)pyridin-2-yl)piperidin-4-yl)methanone]
IC50 (HT29 cells; Homo sapiens, HT-29, 16 h): 10 to 50 nM | IC50 (L929 cells; L929, Murine TNF-α/Z-VAD-FMK): 50 to 100 nM

COCCCOc1ccc(F)c(-c2ccnc(N3CCC(C(=O)N4N=CCC4c4cc(F)cc(F)c4)CC3)c2)c1 (stereo not shown) [Example 30, (5-(3,5-difluorophenyl)-4,5-dihydro-1H-pyrazol-1-yl)(1-(4-(2-fluoro-5-(3-methoxypropoxy)phenyl)pyridin-2-yl)piperidin-4-yl)methanone]
IC50 (HT29 cells; Homo sapiens, HT-29, 16 h): ≤ 10 nM | IC50 (L929 cells; [1]): 50 to 100 nM

Cc1ccc(OCCCO)cc1-c1ccnc(N2CCC(C(=O)N3N=CCC3c3ccccc3)CC2)c1 (stereo not shown) [Example 31, (1-(4-(5-(3-hydroxypropoxy)-2-methylphenyl)pyridin-2-yl)piperidin-4-yl)(5-phenyl-4,5-dihydro-1H-pyrazol-1-yl)methanone]
IC50 (HT29 cells; Homo sapiens, HT-29, 16 h): ≤ 10 nM | IC50 (L929 cells; [1]): 10 to 50 nM

COCCCCOc1ccc(C)c(-c2ccnc(N3CCC(C(=O)N4N=CCC4c4cc(F)cc(F)c4)CC3)c2)c1 (stereo not shown) [Example 32, (5-(3,5-difluorophenyl)-4,5-dihydro-1H-pyrazol-1-yl)(1-(4-(5-(4-methoxybutoxy)-2-methylphenyl)pyridin-2-yl)piperidin-4-yl)methanone]
IC50 (HT29 cells; Homo sapiens, HT-29, 16 h): ≤ 10 nM | IC50 (L929 cells; L929, Murine TNF-α/Z-VAD-FMK): 10 to 50 nM

Cc1ccc(OCC2CCOCC2)cc1-c1ccnc(N2CCC(C(=O)N3N=CCC3c3cc(F)cc(F)c3)CC2)c1 (stereo not shown) [Example 33, (5-(3,5-difluorophenyl)-4,5-dihydro-1H-pyrazol-1-yl)(1-(4-(2-methyl-5-((tetrahydro-2H-pyran-4-yl)methoxy)phenyl)pyridin-2-yl)piperidin-4-yl)methanone]
IC50 (HT29 cells; Homo sapiens, HT-29, 16 h): ≤ 10 nM | IC50 (L929 cells; [1]): 10 to 50 nM
